These results are taken from patent US20110098214A1 (priority 2005, published 2011).

Square brackets hold non-standard residues; d marks the D form. Ends that are not written are not given here. Peptide text beside a SMILES is read from it.

The subject of series [1] is mouse model for endotoxemia. Particulars: in vivo.
Another series concerns the target T1, human IL-1β (Pepro Tech) (human, UniProt P01584 117-269).
T1 construct: Commercial protein added at 200 ng/mL to the LPS solution
Briefly: batch adsorption on peptide-immobilized silica beads, in an LPS solution (500 ng/mL LPS) containing IL-1β.

With `CC[C@H](C)[C@H](NC(=O)[C@H](CO)NC(=O)[C@H](CO)NC(=O)[C@@H](NC(=O)[C@H](CO)NC(=O)[C@H](CO)NC(=O)[C@H](CO)NC(=O)[C@H](Cc1ccc(O)cc1)NC(=O)[C@H](N)CCCCN)[C@@H](C)CC)C(=O)N[C@@H](CCCNC(=N)N)C(=O)NCC(=O)NCC(=O)N[C@@H](CC(C)C)C(=O)N[C@@H](CC(C)C)C(=O)N[C@@H](CC(C)C)C(=O)N[C@@H](CC(C)C)C(=O)N[C@@H](CC(C)C)C(=O)N[C@@H](CC(C)C)C(=O)N[C@@H](CC(C)C)C(=O)O` [Wine Opener, kYSSSISSIRGGLLLLLLL] (H-[dK]YSSSISSIRGGLLLLLLL-OH; N-terminus and C-terminus assumed), the “short term toxicity (weight)” value in series [1] is “no short term toxicity which affected weight”.

B1: peptide Li5 C (peptide)
peptide: KNYSSSISSIHAC
modifications: also: immobilized on silica beads via C-terminal Cys thiol
notes: In the assay it was immobilized on propionyl chloride functionalized silica gel beads
Regarding B1, in the series with human IL-1β (Pepro Tech), the binding result is on record as “no binding (tested: 200 ng/mL IL-1β)”.
